Laboratory results published in US20240059673A1, “SUBSTITUTED INDOLE COMPOUNDS” (Gilead Sciences, Inc., priority 2020, published 2024).
Read-outs that look alike come from different tables or passages of the source.

Key:
TLR7 = target: T1, TLR7 (Homo sapiens, UniProt Q9NYK1); test: Human PBMC cell-based assay, TLR7 agonist stimulation; settings: human PBMCs, read-out: TLR-7 EC50
T1 construct: lymphocytes, monocytes and dendritic cells that express TLR7, TLR8 and TLR9; endogenous in cells; host or cells: cryopreserved human PBMCs from healthy donors
T1 sequence (Q9NYK1 27-1049): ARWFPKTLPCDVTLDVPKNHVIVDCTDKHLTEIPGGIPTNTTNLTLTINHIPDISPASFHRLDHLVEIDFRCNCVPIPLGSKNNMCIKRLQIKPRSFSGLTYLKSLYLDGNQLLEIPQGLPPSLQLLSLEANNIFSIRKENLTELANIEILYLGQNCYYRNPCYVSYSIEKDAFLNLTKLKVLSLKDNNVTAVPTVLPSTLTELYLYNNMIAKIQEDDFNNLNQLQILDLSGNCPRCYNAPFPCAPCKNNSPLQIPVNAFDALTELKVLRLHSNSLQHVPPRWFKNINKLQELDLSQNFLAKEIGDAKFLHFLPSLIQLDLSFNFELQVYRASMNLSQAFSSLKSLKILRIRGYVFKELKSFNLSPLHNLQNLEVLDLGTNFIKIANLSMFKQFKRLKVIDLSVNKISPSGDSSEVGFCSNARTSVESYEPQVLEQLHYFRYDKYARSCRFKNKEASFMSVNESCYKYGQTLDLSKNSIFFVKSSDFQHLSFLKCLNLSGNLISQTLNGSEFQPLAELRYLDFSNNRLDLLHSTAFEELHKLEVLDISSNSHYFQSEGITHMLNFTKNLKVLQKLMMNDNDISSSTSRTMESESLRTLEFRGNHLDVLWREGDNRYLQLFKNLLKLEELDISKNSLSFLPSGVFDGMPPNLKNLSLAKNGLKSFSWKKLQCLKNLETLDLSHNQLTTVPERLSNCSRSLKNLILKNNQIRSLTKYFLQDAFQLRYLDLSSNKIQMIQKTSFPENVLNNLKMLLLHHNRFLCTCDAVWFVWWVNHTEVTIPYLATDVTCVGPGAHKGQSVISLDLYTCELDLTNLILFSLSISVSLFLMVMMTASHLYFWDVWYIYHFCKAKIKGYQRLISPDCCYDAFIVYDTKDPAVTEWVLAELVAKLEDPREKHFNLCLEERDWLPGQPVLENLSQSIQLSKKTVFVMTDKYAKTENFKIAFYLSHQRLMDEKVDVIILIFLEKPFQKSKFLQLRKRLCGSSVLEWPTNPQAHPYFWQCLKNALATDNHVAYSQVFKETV
Source text: (§1) Human Peripheral Blood Mononuclear Cell (PBMC) Cell-Based Assay
(§2) Human peripheral blood mononuclear cells (PBMCs) consist of lymphocytes, monocytes and dendritic cells that express TLR7, TLR8 and TLR9. These cells respond to TLR7, TLR8 and TLR9 ligand stimulation and produce cytokines and chemokines in vitro and in vivo. Human PBMCs are therefore suitable to be used in a cell-based assay to assess the in vitro potency of a TLR 7, 8, and/or 9 antagonist. The result is expected to be more translatable to the pharmacodynamics response in vivo than cell line-based assays.
(§3) Cryopreserved human PBMCs from healthy donors were thawed and resuspended in RPMI-1640 media with L-glutamine (Corning) supplemented with 10% Fetal Bovine Serum (Hyclone) and 1× Penicillin-Streptomycin (Corning). After counting, the cell density was adjusted to 2 million cells/ml and incubated for 1 hour at 37° C., 5% CO2 for recovery. Following the recovery, the cells were plated by adding 50p per well (100,000 cells) to 384-well cell culture plates (Greiner) containing 250 nl of test antagonists in 100% DMSO per well, in a 10 points dose response in quadruplicates. PBMCs were incubated in the presence of test antagonists for one hour at 37° C., 5% CO2 before being stimulated with a TLR7 or TLR9 agonist. GS-986 (Gilead Sciences) was used as the TLR7 agonist at a final concentration of 400 nM. ODN-2216 (InvivoGen) was used as the TLR9 agonist at a final concentration of 3μM. PBMCs were incubated in the presence of the test antagonist and the TLR7 (or TLR9) agonist for an additional 6 hours at 37° C., 5% CO2. At the end of the incubation, the cell culture plates were centrifuged at 500 g for 5 min, and the cell culture supernatant was collected. The level of cytokines (IL-6 and IFNα) in the supernatant was measured by electrochemiluminescence immunoassays (Mesoscale Discovery) following manufacturer's recommended protocols. The level of cytokine measured was plotted against the test antagonist concentration and fitted to a sigmoidal function to determine the EC50, which are shown below in Table 2.

TLR9 = target: T2, TLR9 (Homo sapiens, UniProt Q9NR96); test: Human PBMC cell-based assay, TLR9 agonist stimulation; settings: human PBMCs, read-out: TLR-9 EC50
T2 construct: lymphocytes, monocytes and dendritic cells that express TLR7, TLR8 and TLR9; endogenous in cells; host or cells: cryopreserved human PBMCs from healthy donors
T2 sequence (Q9NR96 26-1032): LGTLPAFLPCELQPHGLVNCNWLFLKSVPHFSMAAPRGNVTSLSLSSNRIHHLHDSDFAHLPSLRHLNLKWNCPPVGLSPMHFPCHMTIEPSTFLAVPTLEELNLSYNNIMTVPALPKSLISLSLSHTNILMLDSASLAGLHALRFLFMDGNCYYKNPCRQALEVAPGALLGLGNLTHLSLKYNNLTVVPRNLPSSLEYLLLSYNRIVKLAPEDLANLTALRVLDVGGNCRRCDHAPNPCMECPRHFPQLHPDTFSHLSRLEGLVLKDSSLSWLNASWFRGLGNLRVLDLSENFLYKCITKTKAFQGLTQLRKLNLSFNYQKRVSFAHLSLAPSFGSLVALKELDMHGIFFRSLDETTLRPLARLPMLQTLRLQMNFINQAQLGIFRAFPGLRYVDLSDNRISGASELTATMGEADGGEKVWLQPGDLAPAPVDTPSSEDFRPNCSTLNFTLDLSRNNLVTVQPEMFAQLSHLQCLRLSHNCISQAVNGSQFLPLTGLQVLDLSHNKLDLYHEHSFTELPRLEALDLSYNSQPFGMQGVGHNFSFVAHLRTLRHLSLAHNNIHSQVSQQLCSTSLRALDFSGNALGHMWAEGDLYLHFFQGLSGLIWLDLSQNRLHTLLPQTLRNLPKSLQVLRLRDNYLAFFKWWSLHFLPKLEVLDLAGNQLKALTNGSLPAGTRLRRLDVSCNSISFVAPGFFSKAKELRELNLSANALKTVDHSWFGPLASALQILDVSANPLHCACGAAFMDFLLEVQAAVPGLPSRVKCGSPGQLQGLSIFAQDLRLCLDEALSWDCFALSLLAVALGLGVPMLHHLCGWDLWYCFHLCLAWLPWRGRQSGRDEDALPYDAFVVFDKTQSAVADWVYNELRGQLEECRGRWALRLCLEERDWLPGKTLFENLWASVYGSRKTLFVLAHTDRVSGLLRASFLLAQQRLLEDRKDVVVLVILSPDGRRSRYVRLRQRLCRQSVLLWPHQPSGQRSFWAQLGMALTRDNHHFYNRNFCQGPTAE
Source text: as §1, §2, §3

[1] = TLR7 agonist GS-986 400 nM, 6 hours, cytokines (IL-6 and IFNα) in supernatant, Table 2
[2] = TLR9 agonist ODN-2216 3 μM, 6 hours, cytokines (IL-6 and IFNα) in supernatant, Table 2
[3] = same protocol as Example A, Table 3 comparison

`Cc1cc(-c2ccc3c(C)c(-c4cnc(N5CCNCC5)nc4)[nH]c3c2)cc(C)n1` [Example 1, 6-(2,6-dimethylpyridin-4-yl)-3-methyl-2-(2-(piperazin-1-yl)pyrimidin-5-yl)-1H-indole] showed an EC50 (TLR7; [1]) of 0.0073 µM and an EC50 (TLR9; [2]) of 0.0346 µM.

`Cc1cc(-c2ccc3c(C)c(-c4ccc(N5CCNCC5)nc4)[nH]c3c2)cc(C)n1` [Example 2, 6-(2,6-dimethylpyridin-4-yl)-3-methyl-2-(6-(piperazin-1-yl)pyridin-3-yl)-1H-indole] was tested, and the EC50 (TLR7; [1]) was 0.0068 µM and the EC50 (TLR9; [2]) was 0.0332 µM.

For `Cc1c(-c2ccc(N3CCNCC3)nc2)[nH]c2cc(-c3cc(C)c4ncnn4c3)ccc12` [Example 4], the EC50 (TLR7; [1]) was 0.0014 µM and the EC50 (TLR9; [2]) was 0.322 µM.

Work on `Cc1c(-c2ccc(N3CCNCC3)nc2)[nH]c2cc(-c3ccc(C#N)c4ncccc34)ccc12` [Example 7] yielded an EC50 (TLR7; [1]) of 0.0005 µM and an EC50 (TLR9; [2]) of 0.508 µM.

`CCc1c(-c2ccc(N3CCNCC3)nc2)[nH]c2cc(-c3cc(C)c4ncnn4c3)ccc12` [Example 23] showed an EC50 (TLR7; [1]) of 0.0005 µM and an EC50 (TLR9; [2]) of 0.305 µM.

`Cc1cc(-c2[nH]c3ccc(-c4ccc(N5CCNCC5)nc4)cc3c2C(C)C)cc(C)n1` [Example A, reference compound] showed an EC50 (TLR7; [3]) of 0.0039 µM and an EC50 (TLR9; [3]) of 0.263 µM.

`Cc1cc(-c2[nH]c3ccc(-c4ccc(N5CCNCC5)nc4)cc3c2C(C)C)cn2ncnc12` [Example B, reference compound] was tested, and the EC50 (TLR7; [3]) was 0.0005 µM and the EC50 (TLR9; [3]) was 0.716 µM.
